{
  "source": "patent US20080262097A1",
  "about": "“Formulations” (priority 2005, published 2008)",
  "assay_in_all_cases": "Disc diffusion assay (DDA)",
  "type_in_all_cases": "cell-based",
  "conditions_in_all_cases": "zone diameter, 200 μg per disc",
  "key": {"[1]": {"tested_on": "P. avidum ATCC 25577", "method": "(§1) The Propionibacterium spp organisms were cultured and maintained on Wilkins-Chalgren Anaerobe Medium (agar and broth) at pH 6.0; cultures were incubated anaerobically at 37° C. for 72 hours.\n(§2) A sterile paper disc was impregnated with a sample of the test compound and a minimum of 30 minutes allowed for the solvents to evaporate as far as possible. The disc was then placed on an agar plate onto which the test micro-organism had been inoculated. The plate was then incubated under the conditions described above, following which it was examined visually for signs of bacterial growth. If the test compound had antimicrobial activity, a circular zone of no growth would be obtained around the disc. The diameter of this zone of “inhibition” was measured using a ProtoCOL™ automated zone sizer (Synbiosis, Cambridge, UK). In general, a greater diameter and/or area of the zone of inhibition indicates a greater antimicrobial activity in the relevant test compound, although other factors such as test compound mobility through the agar gel may also influence the result.\n(§3) The area of the zone of inhibition was calculated from the measured zone diameter (D) using the formula π(D/2)^2."}, "[2]": {"tested_on": "P. granulosum NCTC 11865", "method": "as §1, §2, §3"}, "[3]": {"tested_on": "P. granulosum PRP-005", "method": "as §1, §2, §3"}, "[4]": {"tested_on": "P. granulosum PRP-043", "method": "as §1, §2, §3"}, "[5]": {"tested_on": "P. granulosum PRP-055", "method": "as §1, §2, §3"}},
  "data": [
    {"smiles": "O=C(OOC(=O)c1ccccc1)c1ccccc1", "note": "[benzoyl peroxide]", "values": [
      {"measurement": "DDA", "setting": "[1]", "result": "25.83 (±0.95) mm"},
      {"measurement": "DDA", "setting": "[2]", "result": "24.19 (±0.94) mm"},
      {"measurement": "DDA", "setting": "[3]", "result": "22.95 (±0.64) mm"},
      {"measurement": "DDA", "setting": "[4]", "result": "22.48 (±1.19) mm"},
      {"measurement": "DDA", "setting": "[5]", "result": "21.51 (±0.47) mm"}
    ]},
    {"smiles": "CC(C)(C)c1cc(O)ccc1O", "note": "[TBHQ, t-butyl hydroquinone]", "values": [
      {"measurement": "DDA", "setting": "[1]", "result": "9.16 (±0.48) mm"},
      {"measurement": "DDA", "setting": "[2]", "result": "11.00 (±0.00) mm"},
      {"measurement": "DDA", "setting": "[3]", "result": "0.00 (±0.00) mm"},
      {"measurement": "DDA", "setting": "[4]", "result": "10.56 (±0.48) mm"},
      {"measurement": "DDA", "setting": "[5]", "result": "13.07 (±0.78) mm"}
    ]}
  ]
}
